Experimental data reported in PMC11274883, “Anticancer Effect of Pt^[sequence], Pt^II5MESS, Pt^II56MESS and Their Platinum(IV)-Dihydroxy Derivatives against Triple-Negative Breast Cancer and Cisplatin-Resistant Colorectal Cancer” (Cancers, 2024).

Assays:
Assay type in all cases: cell-based
A2780 = experiment: WST-1 cytotoxicity, 72 h
Procedure, shortened: (§1)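 Cells were seeded at 1000 per well and exposed to compound for 72 h. Viability was then read with WST-1 (1 h, absorbance at 450 nm). Apparent IC50 values came from nonlinear regression of % survival across three experiments, each with n = 3.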

ADDP = experiment: WST-1 cytotoxicity, 72 h
Procedure, shortened: as §1

HT29 = experiment: WST-1 cytotoxicity, 72 h
Procedure, shortened: as §1

MCF−7 = experiment: WST-1 cytotoxicity, 72 h
Procedure, shortened: as §1

MDA−MB−231 = experiment: WST-1 cytotoxicity, 72 h
Procedure, shortened: as §1

HT29 cells [1] = experiment: DCFDA cellular ROS detection assay; conditions: complexes at IC50, TBHP 20 µM
Procedure, shortened: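 Cells seeded at 2500 cells/well overnight, then loaded with 25 µM DCFH-DA for 45 min. DCF fluorescence (ex/em 485/535 nm, RFU) read at multiple time points; 20 µM TBHP served as positive control. Three independent experiments in triplicate.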

HT29 cells [2] = experiment: Western blot protein expression; conditions: HT29, IC50, 72 h
Procedure, shortened: (§2)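 Cells were lysed in RIPA buffer with orthovanadate, and 20 µg protein was run on SDS-PAGE, transferred to PVDF and probed for proliferation, apoptosis, microtubule and autophagy markers. ECL band intensities were normalised to GAPDH and then to untreated control. Three independent experiments were run per marker.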

MDA−MB−231 cells = experiment: Western blot protein expression; conditions: MDA−MB−231, IC50, 72 h
Procedure, shortened: as §2

[3] = representative blot Figure S30G
[4] = representative blot Figure S30H

SMILES: N[C@H]1CCCC[C@@H]1N.O=[N+]([O-])[O-].O=[N+]([O-])[O-].[Pt+2].c1cnc2c(c1)ccc1cccnc12 [[Pt(1,10-phenanthroline)(1S,2S-diaminocyclohexane)](NO3)2]
- potency relative to cisplatin (A2780; A2780, 72 h): 19 fold
- IC50 (A2780; A2780, 72 h, mean ± SEM): 1110 ± 1880 nM
- Selective cytotoxicity index (SCI) (A2780; IC50 MCF10A/IC50 A2780): 3.14
- potency relative to cisplatin (ADDP; ADDP, 72 h): 44 fold
- IC50 (ADDP; ADDP, 72 h, mean ± SEM): 2550 ± 1480 nM
- Selective cytotoxicity index (SCI) (ADDP; IC50 MCF10A/IC50 ADDP): 1.37
- potency relative to cisplatin (HT29; HT29, 72 h): 102 fold
- IC50 (HT29; HT29, 72 h, mean ± SEM): 760 ± 1470 nM
- Selective cytotoxicity index (SCI) (HT29; IC50 MCF10A/IC50 HT29): 4.59
- Selective cytotoxicity index (SCI) (MCF−7; IC50 MCF10A/IC50 MCF−7): 1.91
- potency relative to cisplatin (MCF−7; MCF−7, 72 h): 18 fold
- IC50 (MCF−7; MCF−7, 72 h, mean ± SEM): 1830 ± 2120 nM
- Selective cytotoxicity index (SCI) (MDA−MB−231; IC50 MCF10A/IC50 MDA−MB−231): 3.45
- potency relative to cisplatin (MDA−MB−231; MDA−MB−231, 72 h): 13 fold
- IC50 (MDA−MB−231; MDA−MB−231, 72 h, mean ± SEM): 1010 ± 1360 nM
- ROS production (HT29 cells [1]; HT29, 24 h): 219.00 RFU
- ROS production (HT29 cells [1]; HT29, 48 h): 256.22 RFU
- ROS production (HT29 cells [1]; HT29, 72 h): 273.00 RFU
- β-actin/GAPDH normalized to control (1) (HT29 cells [2]; representative blot Figure S28A): 0.1267
- β-tubulin/GAPDH normalized to control (1) (HT29 cells [2]; representative blot Figure S28B): 0.232
- α-tubulin/GAPDH normalized to control (1) (HT29 cells [2]; representative blot Figure S28C): 0.09086
- p-AKT/AKT/GAPDH normalized to control (1) (HT29 cells [2]; representative blot Figure S29A): 0.09219
- p-ERK/ERK/GAPDH normalized to control (1) (HT29 cells [2]; representative blot Figure S29B): 0.9509
- p53/GAPDH normalized to control (1) (HT29 cells [2]; representative blot Figure S29C): 4.791
- p21/GAPDH normalized to control (1) (HT29 cells [2]; representative blot Figure S29D): 3.18
- Bax/GAPDH normalized to control (1) (HT29 cells [2]; representative blot Figure S30A): 3.407
- Bcl2/GAPDH normalized to control (1) (HT29 cells [2]; representative blot Figure S30B): 0.2872
- Cyt C/GAPDH normalized to control (1) (HT29 cells [2]; representative blot Figure S30C): 1.692
- Procaspase 8/GAPDH normalized to control (1) (HT29 cells [2]; representative blot Figure S30D): 0.1633
- Cleaved BID/GAPDH normalized to control (1) (HT29 cells [2]; representative blot Figure S30E): 1.611
- Procaspase 9/GAPDH normalized to control (1) (HT29 cells [2]; representative blot Figure S30F): 0.1981
- Cleaved caspase 3/GAPDH normalized to control (1) (HT29 cells [2]; [3]): 17.46
- Procaspase 3/GAPDH normalized to control (1) (HT29 cells [2]; [3]): 0.4874
- Cleaved PARP-1/GAPDH normalized to control (1) (HT29 cells [2]; [4]): 8.496
- PARP-1/GAPDH normalized to control (1) (HT29 cells [2]; [4]): 0.2612
- Beclin1/GAPDH normalized to control (1) (HT29 cells [2]; representative blot Figure S31A): 5.324
- ATG5/GAPDH normalized to control (1) (HT29 cells [2]; representative blot Figure S31B): 0.9428
- ATG16L1/GAPDH normalized to control (1) (HT29 cells [2]; representative blot Figure S31C): 3.844
- ATG9A/GAPDH normalized to control (1) (HT29 cells [2]; representative blot Figure S31D): 0.465
- ATG4B/GAPDH normalized to control (1) (HT29 cells [2]; representative blot Figure S31E): 0.6844
- LC3B/GAPDH normalized to control (1) (HT29 cells [2]; representative blot Figure S31F): 2.121
- β-actin/GAPDH normalized to control (1) (MDA−MB−231 cells; representative blot Figure S24A): 0.4744
- β-tubulin/GAPDH normalized to control (1) (MDA−MB−231 cells; representative blot Figure S24B): 1.15
- α-tubulin/GAPDH normalized to control (1) (MDA−MB−231 cells; representative blot Figure S24C): 0.9355
- p-AKT/AKT/GAPDH normalized to control (1) (MDA−MB−231 cells; representative blot Figure S25A): 0.6042
- p-ERK/ERK/GAPDH normalized to control (1) (MDA−MB−231 cells; representative blot Figure S25B): 0.6771
- p53/GAPDH normalized to control (1) (MDA−MB−231 cells; representative blot Figure S25C): 1.105
- p21/GAPDH normalized to control (1) (MDA−MB−231 cells; representative blot Figure S25D): 1.812
- Bax/GAPDH normalized to control (1) (MDA−MB−231 cells; representative blot Figure S26A): 1.161
- Bcl2/GAPDH normalized to control (1) (MDA−MB−231 cells; representative blot Figure S26B): 0.8361
- Cytochrome C/GAPDH normalized to control (1) (MDA−MB−231 cells; representative blot Figure S26C): 1.827
- Procaspase 8/GAPDH normalized to control (1) (MDA−MB−231 cells; representative blot Figure S26D): 0.5195
- Cleaved BID/GAPDH normalized to control (1) (MDA−MB−231 cells; representative blot Figure S26E): 13.39
- Procaspase 9/GAPDH normalized to control (1) (MDA−MB−231 cells; representative blot Figure S26F): 0.2042
- Procaspase 3/GAPDH normalized to control (1) (MDA−MB−231 cells; representative blot Figure S26G): 0.3207
- PARP-1/GAPDH normalized to control (1) (MDA−MB−231 cells; representative blot Figure S26H): 0.7775
- Beclin1/GAPDH normalized to control (1) (MDA−MB−231 cells; representative blot Figure S27A): 1.911
- ATG5/GAPDH normalized to control (1) (MDA−MB−231 cells; representative blot Figure S27B): 0.7762
- ATG16L1/GAPDH normalized to control (1) (MDA−MB−231 cells; representative blot Figure S27C): 0.6758
- ATG9A/GAPDH normalized to control (1) (MDA−MB−231 cells; representative blot Figure S27D): 0.361
- ATG4B/GAPDH normalized to control (1) (MDA−MB−231 cells; representative blot Figure S27E): 1.546
- LC3B/GAPDH normalized to control (1) (MDA−MB−231 cells; representative blot Figure S27F): 0.9969
